Laboratory results: PubChem BioAssay AID330 (DTP/NCI, 2004)
Values joined by “and” are separate entries in the source; they are usually repeats but may differ in a detail not shown here. Identical values can stand only once. Toxic doses and inconclusive results are not listed.

Test system: P388 leukemia ip, CD2F1 mice, survival T/C
Test: NCI In Vivo Anticancer Drug Screen. Data for tumor model P388 Leukemia (intraperitoneal) in CD2F1 (CDF1) mice
Settings: endpoint: median survival time, higher = longer survival
Procedure, shortened: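 Mice carrying the transplanted tumor received test compound or vehicle. Survival was recorded in each group, and the value is the treated-group measurement divided by that of the vehicle-treated control group.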

[1] = dose: 50.0 mg/kg/injection, schedule: Q01DX009 (ip), vehicle: saline with Tween-80
[2] = dose: 100.0 mg/kg/injection, schedule: Q01DX009 (ip), vehicle: saline with Tween-80
[3] = dose: 50.0 mg/kg/injection, schedule: Q01DX005 (ip), vehicle: saline with Tween-80
[4] = dose: 100.0 mg/kg/injection, schedule: Q01DX005 (ip), vehicle: saline with Tween-80
[5] = dose: 25.0 mg/kg/injection, schedule: Q01DX009 (ip), vehicle: saline
[6] = dose: 50.0 mg/kg/injection, schedule: Q01DX009 (ip), vehicle: saline
[7] = dose: 100.0 mg/kg/injection, schedule: Q01DX009 (ip), vehicle: saline
[8] = dose: 200.0 mg/kg/injection, schedule: Q01DX009 (ip), vehicle: saline
[9] = dose: 25.0 mg/kg/injection, schedule: Q01DX009 (ip), vehicle: saline with Tween-80
[10] = dose: 200.0 mg/kg/injection, schedule: Q01DX005 (ip), vehicle: saline with Tween-80
[11] = dose: 60.0 mg/kg/injection, schedule: Q01DX005 (ip), vehicle: saline
[12] = dose: 120.0 mg/kg/injection, schedule: Q01DX005 (ip), vehicle: saline
[13] = dose: 240.0 mg/kg/injection, schedule: Q01DX005 (ip), vehicle: saline
[14] = dose: 50.0 mg/kg/injection, schedule: Q01DX005 (ip), vehicle: Klucel (hydroxypropylcellulose) (HPC)
[15] = dose: 100.0 mg/kg/injection, schedule: Q01DX005 (ip), vehicle: Klucel (hydroxypropylcellulose) (HPC)
[16] = dose: 200.0 mg/kg/injection, schedule: Q01DX005 (ip), vehicle: Klucel (hydroxypropylcellulose) (HPC)
[17] = dose: 60.0 mg/kg/injection, schedule: Q01DX005 (ip), vehicle: saline with Tween-80
[18] = dose: 120.0 mg/kg/injection, schedule: Q01DX005 (ip), vehicle: saline with Tween-80
[19] = dose: 240.0 mg/kg/injection, schedule: Q01DX005 (ip), vehicle: saline with Tween-80

For `CC1(C)NC(=O)N2CCCC(=O)CC21` (centres undefined), the T/C (dose: 100.0 mg/kg/injection, schedule: Q01DX001 (ip), vehicle: saline) was 96 % of control, the T/C (dose: 200.0 mg/kg/injection, schedule: Q01DX001 (ip), vehicle: saline) was 95 % of control and the T/C (dose: 400.0 mg/kg/injection, schedule: Q01DX001 (ip), vehicle: saline) was 96 % of control.
With `O=C(O)C(Cl)(c1ccccc1)C(Cl)c1ccccc1` (centres undefined) the T/C [1] was 104 % of control, the T/C [2] was 95 % of control and the T/C (dose: 200.0 mg/kg/injection, schedule: Q01DX009 (ip), vehicle: saline with Tween-80) was 100 % of control.
With `BrCC[P+](c1ccccc1)(c1ccccc1)c1ccccc1` the T/C (dose: 1.56 mg/kg/injection, schedule: Q01DX009 (ip), vehicle: water) was 115 % of control, the T/C (dose: 3.0 mg/kg/injection, schedule: Q01DX009 (ip), vehicle: water) was 120 % of control and the T/C (dose: 6.25 mg/kg/injection, schedule: Q01DX009 (ip), vehicle: water) was 118 % of control.
`COC(=O)C1=C(C(=O)OC)C2CC3C4CC=C5CC(OC(C)=O)CCC5(C)C4CCC3(C)C2=C(OC(C)=O)C1` (centres undefined) was tested, and the T/C [3] was 90 % of control and the T/C [4] was 87 % of control.
`CCCCCC(C1SC(=S)NC1=O)C1SC(=S)NC1=O` (centres undefined) was tested, and the T/C [3] was 90 % of control and the T/C [4] was 106 % of control.
With `COc1cccc2c1C(=O)c1c(O)c3c(c(O)c1C2=O)C[C@@](O)(C(=O)COC(C)=O)C[C@@H]3OC1CC(N)C(O)C(C)O1` (some centres undefined) the T/C (dose: 0.08 mg/kg/injection, schedule: Q01DX009 (ip), vehicle: saline sonified) was 200 % of control and the T/C (dose: 1.5 mg/kg/injection, schedule: Q01DX009 (ip), vehicle: saline sonified) was 150 % of control.
In the case of `CC(=O)Nc1ccc(S(N)(=O)=O)cc1`, the T/C [5] is reported as 96 % of control, the T/C [6] is reported as 95 % of control and the T/C [7] is reported as 96 % of control. The T/C [8] was 102 % of control.
With `CC1(C)OC2C(CO)OC(n3ccc(=O)[nH]c3=O)C2O1` (centres undefined) the T/C (dose: 6.25 mg/kg/injection, schedule: Q01DX009 (ip), vehicle: saline with Tween-80) was 107 % of control, the T/C (dose: 12.5 mg/kg/injection, schedule: Q01DX009 (ip), vehicle: saline with Tween-80) was 109 % of control and the T/C [9] was 100 % of control and 110 % of control and 120 % of control. The T/C [1] was 108 % of control and 92 % of control and 97 % of control and the T/C [2] was 90 % of control.
`CCOc1ccc(N=Nc2c(O)n(-c3ccc(Br)cc3)c(=S)n(-c3ccccc3)c2=O)cc1` was tested, and the T/C (dose: 100.0 mg/kg/injection, schedule: Q01DX001 (ip), vehicle: saline with Tween-80) was 107 % of control, the T/C (dose: 200.0 mg/kg/injection, schedule: Q01DX001 (ip), vehicle: saline with Tween-80) was 98 % of control and the T/C (dose: 400.0 mg/kg/injection, schedule: Q01DX001 (ip), vehicle: saline with Tween-80) was 100 % of control.
With `CC1(C)N=C(N)N=C(N)N1c1cccc(CNC(=O)Nc2cccc(S(=O)(=O)F)c2)c1` the T/C (dose: 44.0 mg/kg/injection, schedule: Q01DX009 (ip), vehicle: saline with Tween-80) was 159 % of control, the T/C [6] was 163 % of control and the T/C (dose: 67.0 mg/kg/injection, schedule: Q01DX009 (ip), vehicle: saline with Tween-80) was 163 % of control. The T/C [2] was 168 % of control.
`O/N=C1/C(=N/O)N(c2ccccc2)CCN1c1ccccc1` was tested, and the T/C [3] was 99 % of control, the T/C [4] was 100 % of control and the T/C [10] was 92 % of control.
In the case of `[N-]=[N+]=NCc1cnnn1C1OC(CO)C(O)C1O` (centres undefined), the T/C [11] is reported as 102 % of control, the T/C [12] is reported as 115 % of control and the T/C [13] is reported as 99 % of control.
With `CCOC(=O)c1ccc(N=Nc2c(O)c(C(=O)OCC)c(O)c3ccccc23)cc1O` the T/C (dose: 100.0 mg/kg/injection, schedule: Q01DX001 (ip), vehicle: distilled water + alcohol) was 91 % of control, the T/C (dose: 200.0 mg/kg/injection, schedule: Q01DX001 (ip), vehicle: distilled water + alcohol) was 86 % of control and the T/C (dose: 400.0 mg/kg/injection, schedule: Q01DX001 (ip), vehicle: distilled water + alcohol) was 86 % of control.
In the case of `C/C(=N\NC(=O)c1ccccc1N)c1ccccc1O`, the T/C [14] is reported as 100 % of control, the T/C [15] is reported as 98 % of control and the T/C [16] is reported as 100 % of control.
With `CCCCCCC(C)N=[N+]([O-])CC(C)OC(C)=O` (centres undefined) the T/C (dose: 10.0 mg/kg/injection, schedule: Q01DX009 (ip), vehicle: saline with Tween-80) was 121 % of control, the T/C (dose: 20.0 mg/kg/injection, schedule: Q01DX009 (ip), vehicle: saline with Tween-80) was 105 % of control and the T/C (dose: 40.0 mg/kg/injection, schedule: Q01DX009 (ip), vehicle: saline with Tween-80) was 121 % of control.
In the case of `CCCCc1[nH]nc(-c2n[nH]c(CCCC)c2C)c1C`, the T/C [17] is reported as 95 % of control, the T/C [18] is reported as 100 % of control and the T/C [19] is reported as 108 % of control.
For `CNC(=O)OCc1c(COC(=O)NC)c(-c2cccs2)n2c1CCC2`, the T/C (dose: 12.5 mg/kg/injection, schedule: Q01DX005 (ip), vehicle: saline with Tween-80) was 122 % of control and the T/C [3] was 104 % of control.
In the case of `CCCC(N)P(=O)(O)O` (centres undefined), the T/C [6] is reported as 99 % of control, the T/C [7] is reported as 93 % of control and the T/C [8] is reported as 96 % of control. The T/C (dose: 400.0 mg/kg/injection, schedule: Q01DX009 (ip), vehicle: saline) was 93 % of control.
`O=C/C=C/c1ccc([N+](=O)[O-])cc1Cl` was tested, and the T/C [9] was 104 % of control, the T/C [1] was 106 % of control and the T/C [6] was 115 % of control. The T/C [2] was 106 % of control, the T/C [7] was 124 % of control and the T/C [8] was 124 % of control.
With `CCOC(=O)C(Cc1ccc(O)cc1)NC(=O)c1cc2c(cn1)[nH]c1ccccc12` (centres undefined) the T/C [17] was 101 % of control and the T/C [18] was 117 % of control.
With `CC(=O)Oc1ccccc1C(=O)OC(C)c1ccccc1` (centres undefined) the T/C [14] was 100 % of control, the T/C [15] was 98 % of control and the T/C [16] was 104 % of control.
`[N-]=[N+]=NC12CC3CC(CC(C3)C1)C2` was tested, and the T/C [3] was 100 % of control, the T/C [4] was 101 % of control and the T/C [10] was 106 % of control.
In the case of `CC1(C)OCC2OC(n3cnc4c(N)ncnc43)C(O)C2O1` (centres undefined), the T/C (dose: 25.0 mg/kg/injection, schedule: Q01DX009 (ip), vehicle: Klucel (hydroxypropylcellulose) (HPC)) is reported as 111 % of control, the T/C (dose: 50.0 mg/kg/injection, schedule: Q01DX009 (ip), vehicle: Klucel (hydroxypropylcellulose) (HPC)) is reported as 111 % of control and the T/C (dose: 100.0 mg/kg/injection, schedule: Q01DX009 (ip), vehicle: Klucel (hydroxypropylcellulose) (HPC)) is reported as 111 % of control. The T/C (dose: 200.0 mg/kg/injection, schedule: Q01DX009 (ip), vehicle: Klucel (hydroxypropylcellulose) (HPC)) was 97 % of control.
For `CC(=O)Nc1cc(Cl)c2ncn(C3OC(CO)C(O)C3O)c2n1` (centres undefined), the T/C (dose: 25.0 mg/kg/injection, schedule: Q04DX003 (ip), vehicle: water) was 111 % of control, the T/C (dose: 50.0 mg/kg/injection, schedule: Q04DX003 (ip), vehicle: water) was 112 % of control and the T/C (dose: 100.0 mg/kg/injection, schedule: Q04DX003 (ip), vehicle: water) was 109 % of control. For the same compound, the T/C (dose: 200.0 mg/kg/injection, schedule: Q04DX003 (ip), vehicle: water) was 100 % of control and the T/C (dose: 400.0 mg/kg/injection, schedule: Q04DX003 (ip), vehicle: water) was 100 % of control.
`CN(C)C(=O)C1CCC(=O)N1` (centres undefined) was tested, and the T/C [11] was 100 % of control, the T/C [12] was 109 % of control and the T/C [13] was 105 % of control.
In the case of `OCc1ccc(O)c(O)c1`, the T/C (dose: 50.0 mg/kg/injection, schedule: Q01DX005 (ip), vehicle: saline) is reported as 116 % of control, the T/C (dose: 100.0 mg/kg/injection, schedule: Q01DX005 (ip), vehicle: saline) is reported as 123 % of control and the T/C (dose: 200.0 mg/kg/injection, schedule: Q01DX005 (ip), vehicle: saline) is reported as 123 % of control. The T/C (dose: 400.0 mg/kg/injection, schedule: Q01DX005 (ip), vehicle: saline) was 120 % of control.
With `CCCCCCCCCCCC[C@@H](O)[C@H]1CC[C@H]([C@H](O)CCCC[C@H](O)CCCCC[C@@H](O)CC2=C[C@H](C)OC2=O)O1` the T/C (dose: 0.75 mg/kg/injection, schedule: Q01DX009 (ip), vehicle: other) was 113 % of control and the T/C (dose: 1.5 mg/kg/injection, schedule: Q01DX009 (ip), vehicle: other) was 105 % of control.
For `COC(=O)/C(C(C)=O)=C(\OC(C)=O)c1ccc(OC)c(OC)c1`, the T/C [17] was 94 % of control, the T/C [18] was 100 % of control and the T/C [19] was 92 % of control.
`O/N=C/C(Cl)(Cl)Cl` was tested, and the T/C (dose: 3.12 mg/kg/injection, schedule: Q01DX009 (ip), vehicle: saline) was 105 % of control, the T/C (dose: 6.25 mg/kg/injection, schedule: Q01DX009 (ip), vehicle: saline) was 109 % of control and the T/C (dose: 12.5 mg/kg/injection, schedule: Q01DX009 (ip), vehicle: saline) was 107 % of control and 97 % of control. For the same compound, the T/C [5] was 100 % of control and 93 % of control.
